Laboratory results as given in paper PMC7381267, “A Bromodomain-Containing Protein 4 (BRD4) Inhibitor Suppresses Angiogenesis by Regulating AP-1 Expression” (Frontiers in Pharmacology, 2020).
Like-named read-outs stand apart in the source and are kept apart here.

Legend:
[1] = test system: chick embryo YSM vessels; experiment: Chick embryo yolk sac membrane (YSM) anti-angiogenesis assay; assay type: in vivo; settings: 100 μM, 24 h; for Blood vessel density and number of blood vessels compared with DMSO: YSM of 3-day-old chick embryos
Method: On the third day of incubation, the well-developed live chicken embryos were carefully transferred into sterilized dishes, and the chick embryo vessels were arranged to face upward. Color marked silastic rings were symmetrically placed onto the top of the vessel regions of the yolk sac membrane and incubated for 3 h in the incubator. Then, 100 μM BET family member inhibitors or DMSO (dissolved in 30 µl of PBS, pH 7.4) was added into the center of the rings and cultured in the incubator for 24 h. Images of the vessels in the silastic rings were captured at 0 and 24 h, respectively. The images were quantitatively analyzed by Image-Pro Plus 6.0, and then the number of blood vessels 24 h after drug treatment and the MVD at 0 and 24 h were quantified using IPP 6.0. The growth rate in the DMSO-treated silica gel circle was considered to be one.

[2] = test system: HUVECs; experiment: Cell viability by CCK-8 assay; assay type: cell-based, human; settings: for Cell viability compared with DMSO or (−)-JQ1: 8.5 μM, 96 h; for IC50: Homo sapiens, HUVEC, read-out: 50% inhibition concentration of cell viability
Method: Cell viability after BET family member inhibitor treatment was evaluated by CCK-8 assay. HUVECs were seeded in 96-well plates at a density of 2,000 cells/well. Twenty-four hours later, the BET family member inhibitors, (−)-JQ1 (negative control drug) and DMSO (solvent group) were added at the indicated concentrations. […] The absorbance was evaluated at 450 nm to determine cell viability.
Furthermore, (−)-JQ1 was employed as a negative control, and DMSO was employed as a solvent control. […].

[3] = target: T1, BRD4 BD2 (Homo sapiens, UniProt O60885); experiment: TR-FRET assay, BRD4 BD2; assay type: binding
T1 construct: purchased Cayman Chemical
Method: (§1) The specificity of the designed and synthesized compounds for BRD4 was also evaluated through comparison with those for BRD2.
(§2) As acetylated histone peptides are known substrates for bromodomain-containing proteins, we initially screened the complexes for their ability to modulate the protein–protein interaction between acetylated lysine and BET family members. […] Then, the IC50 of the compounds that prevent BRD4 (BD1 or BD2)/BRD2 (BD1 or BD2) and acetylated histone interactions was calculated by TR-FRET assay in vitro.

[4] = test system: H3K122Ac; design: method as in Liu et al., 2020; settings: ref Liu et al., 2020; cited from earlier work
[5] = target: T2, BRD4 BD1 (Homo sapiens, UniProt O60885); experiment: TR-FRET assay, BRD4 BD1; assay type: binding
T2 construct: purchased Cayman Chemical
Method: as §1, §2

[6] = target: T3, BRD2 BD1 (Homo sapiens, UniProt P25440); experiment: TR-FRET assay, BRD2 BD1; assay type: binding
T3 construct: purchased Cayman Chemical
Method: as §1, §2

[7] = target: T4, BRD2 BD2 (Homo sapiens, UniProt P25440); experiment: TR-FRET assay, BRD2 BD2; assay type: binding
T4 construct: purchased Cayman Chemical
Method: as §1, §2

[8] = test system: c-jun and c-fos (AP-1) in HUVECs; experiment: Immunoblot of AP-1 components; assay type: cell-based, human; settings: 48 h
Method: Then, the proteins of these cells were extracted using RIPA buffer and separated by 10% (w/v) sodium dodecyl sulphate-polyacrylamide gel electrophoresis (SDS-PAGE). The separated proteins were transferred onto a polyvinylidene fluoride (PVDF) membrane (Millipore, MA, USA) and blocked using 5% (w/v) non-fat powder milk at room temperature. Next, the membranes were incubated in the relative primary antibody and horseradish peroxidase (HRP)-conjugated secondary antibodies. Then, the Image Quant LAS 4000 system (GE Healthcare, Waukesha, WI, USA) was used for the direct visualization of the membranes. The protein bands were densitometrically quantified using Quantity-One protein analysis software (Bio-Rad Laboratories, Hercules, CA, USA). The relative expression of the proteins was normalized to the expression of glyceraldehyde-3-phosphate dehydrogenase (GAPDH).
[…]. […] […].

[9] = test system: chick embryo CAM vasculature; experiment: Chick embryo chorioallantoic membrane (CAM) anti-angiogenesis assay; assay type: in vivo; settings: 48 h; for Anti-angiogenic activity, egg number 4: egg 4; for Inhibitory effect on MVD compared with (+)-JQ1 / Inhibitory effect on microvessel density (MVD) / Positive Ratio: 50 μg/ml; for Inhibitory effect on MVD compared with (+)-JQ1 / Inhibitory effect on microvessel density (MVD) / Inhibition of MVD compared to DMSO / Inhibitory efficacy on MVD compared with (+)-JQ1: CAM; for Inhibitory effect on MVD compared with (+)-JQ1 / Inhibitory effect on microvessel density (MVD): Figure 1C; for Positive Ratio: embryos with ++ and +++ compared with total number of embryos; for Inhibition of MVD compared to DMSO: 25, 50 and 100 μM, Figure 2F; for Inhibitory efficacy on MVD compared with (+)-JQ1: at each of 25, 50 and 100 μM; for Anti-angiogenic activity, egg number 1: egg 1; for Anti-angiogenic activity, egg number 5: egg 5; for Anti-angiogenic activity, egg number 3: egg 3; for Anti-angiogenic activity, egg number 2: egg 2
Method: Fertilized white leghorn chicken eggs were obtained from the Avian Farm of South China Agriculture University (Guangzhou, China) and the shells were cleaned with 1% geramine. […] A small window (10 × 10 mm^2) was cut above the air chamber of egg while the chick embryo was growing through the ninth day. BET family member inhibitors or DMSO (dissolved in 30 µl of phosphate-buffered saline [PBS, pH 7.4]) were placed directly onto the live chick embryo CAM through the window at the indicated concentrations and incubated for 48 h. Then, the eggshells were cut carefully along the axis of the median line, and the content was discarded. The CAM vasculature around the eggshell windows was observed and photographed under a stereomicroscope (Olympus SZX16). The microvessel density (MVD) was calculated as the percentage of blood vessel area in the total drug-treated area using the Image-Pro Plus 6.0 software (IPP 6.0, Media Cybernetics, Inc., Rockville MD, USA).
The effects of all these selected compounds on angiogenesis were first determined through use of the chick embryo CAM model. […] Each of the compounds (50 μg/ml) was added to the CAM of 9-day-old chick embryos for 48 h. The CAMs of chick embryos were photographed, and the inhibition ratio indicating angiogenesis was calculated and analyzed. […] An inhibitory effect observable but not obvious on the generation of third-grade vessels was indicated by “+”; an obvious medium-level inhibitory effect on secondary vessels was indicated by “++”; and an obvious potent inhibitory effect on primary blood vessels was indicated by “+++”.

[10] = test system: HUVECs; experiment: Tube formation assay; settings: 8.5 μM, 48 h pretreatment, then 5 h on Matrigel
Method: The circumference of the formed tubes was measured under an inverted light microscope.

[11] = 50 μg/ml on CAM of 9-day-old chick embryos

T4 sequence (P25440 344-453 limits assumed): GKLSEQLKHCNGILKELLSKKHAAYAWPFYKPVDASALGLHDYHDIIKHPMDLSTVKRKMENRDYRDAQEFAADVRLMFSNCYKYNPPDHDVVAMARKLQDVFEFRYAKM
T3 sequence (P25440 74-180 limits assumed): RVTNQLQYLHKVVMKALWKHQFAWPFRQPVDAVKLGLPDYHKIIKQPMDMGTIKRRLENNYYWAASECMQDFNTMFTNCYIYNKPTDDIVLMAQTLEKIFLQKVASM

Q: For `COc1cc(OC)c2c(=O)cc(-c3cc(C)c(OC[C@H](O)CN4CCCCC4)c(C)c3)oc2c1` [ZL0513 (7)], which “Inhibition efficacy on angiogenesis in YSM compared with (+)-JQ1” value [1] is on record?
A: The value was “significantly higher than that of (+)-JQ1 (1) treatment”.

Q: And the “Blood vessel density and number of blood vessels compared with DMSO” value [1]?
A: The value was “significantly reduced”.

Q: What about the “Cell viability compared with DMSO or (−)-JQ1” value ([2]; HUVECs) of the same compound?
A: Its value is “significantly suppressed cell viability”.

Q: What about the IC50 ([2]; HUVECs, CCK-8, concentration range 0.3 to 15 μM) of the same compound?
A: The IC50 was 8500 nM.

Q: And the IC50 [3]?
A: Its IC50 is 684 nM.

Q: And the “Effect on poly(I:C)-induced H3K122Ac” value [4]?
A: Its value is “block poly(I:C)-induced H3K122Ac”.

Q: What about the “Selectivity window to BRD4 over BRD2” value ([5]; BRD4 versus BRD2) of the same compound?
A: Its value is 10 fold.

Q: What about the IC50 ([5]; TR-FRET) of the same compound?
A: The IC50 was 67 nM.

Q: What about the IC50 [6] of the same compound?
A: The IC50 was 791 nM.

Q: What about the IC50 [7] of the same compound?
A: Its IC50 is 845 nM.

Q: And the “Expression of c-jun compared with DMSO” value [8]?
A: The value was “significantly inhibited the expression of c-jun”.

Q: And the “Phosphorylation of c-jun and c-fos compared with DMSO” value [8]?
A: Its value is “significantly inhibited”.

Q: What about the “Anti-angiogenic activity, egg number 4” value [9, 11] of the same compound?
A: The value was “+”.

Q: And the “Inhibitory effect on MVD compared with (+)-JQ1” value [9]?
A: The value was “better than that of the (+)-JQ1 positive control”.

Q: And the “Inhibitory effect on microvessel density (MVD)” value (“Inhibitory effect … (MVD)” for short) [9]?
A: The value was “most impressive inhibitory effect on MVD”.

Q: And the “Positive Ratio” value [9]?
A: Its value is 4/5.

Q: And the “Inhibition of MVD compared to DMSO” value [9]?
A: The value was “significantly inhibited MVD in a concentration-dependent manner”.

Q: What about the “Inhibitory efficacy on MVD compared with (+)-JQ1” value [9] of the same compound?
A: The value was “stronger inhibitory efficacy than (+)-JQ1”.

Q: What about the “Tube formation (tube circumference) compared with DMSO” value [10] of the same compound?
A: The value was “reduction in tube circumference”.

Q: With `COc1cc(OC)c2c(=O)cc(-c3ccc(OCC4CO4)cc3)oc2c1` (stereo not drawn) [ZL0519 (9)] as the compound, how does the “Positive Ratio” value [9] read?
A: Its value is 3/4.

Q: Which results are given for `Cc1cc(N=Nc2ccc(S(=O)(=O)NC3CCCC3)cc2)cc(C)c1O` [ZL0453(6)]?
A: Anti-angiogenic activity, egg number 1 [9, 11]: +; Anti-angiogenic activity, egg number 4 [9, 11]: +; Anti-angiogenic activity, egg number 5 [9, 11]: +; Positive Ratio [9]: 1/5

Q: Which results are given for `N#CC(=NNc1ccc2c(c1)CCC(=O)N2)C(=O)c1ccc(OC(F)(F)F)cc1` [ZL0593(15)]?
A: Anti-angiogenic activity, egg number 3 [9, 11]: +; Positive Ratio [9]: 3/5

Q: What does the source list for `Cc1sc2c(c1C)C(c1ccc(Cl)cc1)=N[C@@H](CC(=O)OC(C)(C)C)c1nnc(C)n1-2` [(+)-JQ1 (1), reference compound]?
A: Blood vessel density and number of blood vessels compared with DMSO [1]: significantly reduced; Cell viability compared with DMSO or (−)-JQ1 ([2]; HUVECs): significantly suppressed cell viability; IC50 [2]: 5000 nM; Expression of c-jun compared with DMSO [8]: significantly inhibited the expression of c-jun; Phosphorylation of c-jun and c-fos compared with DMSO [8]: significantly inhibited; Inhibitory effect on microvessel density (MVD) [9]: most impressive inhibitory effect on MVD; Inhibition of MVD compared to DMSO [9]: significantly inhibited MVD in a concentration-dependent manner; Tube formation (tube circumference) compared with DMSO [10]: reduction in tube circumference

Q: With `Cc1cc(/N=N/c2ccc(S(=O)(=O)NC3CCCC3)cc2)c(N)cc1O` [ZL0454 (2)] as the compound, how does the “Anti-angiogenic activity, egg number 5” value [9, 11] read?
A: Its value is “+”.

Q: And the “Inhibitory effect … (MVD)” value [9]?
A: Its value is “most impressive inhibitory effect on MVD”.

Q: What about the “Inhibition of MVD compared to DMSO” value [9] of the same compound?
A: The value was “significantly inhibited MVD in a concentration-dependent manner”.

Q: What about the “Inhibitory efficacy on MVD compared with (+)-JQ1” value [9] of the same compound?
A: The value was “stronger inhibitory efficacy than (+)-JQ1”.

Q: With `COC(=O)C1CCCN1S(=O)(=O)c1ccc(NC(=O)c2ccc(C(F)(F)F)cc2)cc1` (stereo not drawn) [ZL0520(10)] as the compound, how does the “Anti-angiogenic activity, egg number 1” value [9, 11] read?
A: Its value is “+”.

Q: And the “Anti-angiogenic activity, egg number 4” value [9, 11]?
A: Its value is “+”.

Q: What about the “Positive Ratio” value [9] of the same compound?
A: The value was 1/5.

Q: Which results are given for `CC(C)(C)c1cc(-c2nnc(-c3cc(F)c(F)c(F)c3)o2)no1` [ZL0164(4)]?
A: Anti-angiogenic activity, egg number 5 [9, 11]: +; Positive Ratio [9]: 2/5

Q: Which results are given for `Cc1ccc(S(=O)(=O)OC[C@@H]2CCCN2S(=O)(=O)c2ccc(NC(=O)Nc3ccc(C(F)(F)F)cc3)cc2)cc1` [ZL0586(12)]?
A: Anti-angiogenic activity, egg number 2 [9, 11]: +; Anti-angiogenic activity, egg number 3 [9, 11]: +; Anti-angiogenic activity, egg number 5 [9, 11]: +; Positive Ratio [9]: 2/5

Q: With `O=C(Nc1ccc(C(F)(F)F)cc1)N1CCN(c2ccc(O)cc2)CC1` [ZL0589(14)] as the compound, how does the “Anti-angiogenic activity, egg number 5” value [9, 11] read?
A: Its value is “+”.

Q: And the “Positive Ratio” value [9]?
A: The value was 2/5.

Q: Which results are given for `Cc1cc(N=Nc2ccc(S(=O)(=O)N3CCCC3)cc2)c(N)cc1O` [ZL0452(5)]?
A: Anti-angiogenic activity, egg number 2 [9, 11]: +; Anti-angiogenic activity, egg number 4 [9, 11]: +; Positive Ratio [9]: 1/4

Q: With `Cc1cc(/N=N/c2ccc(S(=O)(=O)Nc3ccccn3)cc2)c(N)cc1O` [MS436 (3), reference compound] as the compound, how does the IC50 [6] read?
A: Its IC50 is 797 nM.

Q: What about the IC50 [7] of the same compound?
A: Its IC50 is 846 nM.

Q: And the “Anti-angiogenic activity, egg number 5” value [9, 11]?
A: Its value is “+”.

Q: What about the “Inhibitory effect on MVD compared with (+)-JQ1” value [9] of the same compound?
A: The value was “better than that of the (+)-JQ1 positive control”.

Q: And the “Inhibitory effect … (MVD)” value [9]?
A: Its value is “most impressive inhibitory effect on MVD”.

Q: What about the “Inhibition of MVD compared to DMSO” value [9] of the same compound?
A: The value was “significantly inhibited MVD in a concentration-dependent manner”.

Q: And the “Inhibitory efficacy on MVD compared with (+)-JQ1” value [9]?
A: The value was “stronger inhibitory efficacy than (+)-JQ1”.

Q: Which results are given for `Cc1cc(N=Nc2ccc3c(c2)CCC(=O)N3)c(N)cc1O` [ZL0518(8)]?
A: Anti-angiogenic activity, egg number 6 ([9]; 50 μg/ml on CAM of 9-day-old chick embryos, egg 6): +; Positive Ratio [9]: 1/3

Q: What does the source list for `COc1cc(OC)c2c(=O)cc(-c3ccc(OCC(O)CN4CCCCC4)cc3)oc2c1` (stereo not drawn) [HJC5100(16)]?
A: Anti-angiogenic activity, egg number 1 [9, 11]: +; Anti-angiogenic activity, egg number 3 [9, 11]: +
